Assay results as given in ChEMBL document CHEMBL4828777, “Effect of the Chromone Core Substitution of Dirchromone on the Resultant Biological Activities” (J Nat Prod, 2021).
In brackets after ≈: the same amount, converted by molar mass.

Key:
A549 = assay: Cytotoxicity against human A549 cells assessed as reduction in cell viability incubated for 48 hrs by Hoechst staining based assay; assay type: functional; settings: A549, 48 h
Staphylococcus aureus = assay: Antibacterial activity against Staphylococcus aureus ATCC 25923 assessed as reduction in bacterial growth incubated for 24 hrs by microdilution method; assay type: functional
[1] = Cytotoxicity against human WS1 cells assessed as reduction in cell viability incubated for 48 hrs by Hoechst staining based assay; settings: WS1, 48 h
DLD-1 = assay: Cytotoxicity against human DLD-1 cells assessed as reduction in cell viability incubated for 48 hrs by Hoechst staining based assay; assay type: functional; settings: DLD-1, 48 h
Candida albicans = assay: […] activity against Candida albicans ATCC 10231 assessed as reduction in fungal growth incubated for 24 hrs by microdilution method; assay type: functional

Row | Compound | IC50 (A549) [nM] | MIC90 (Staphylococcus aureus) [µM] | IC50 [1] [nM] | IC50 (DLD-1) [nM] | MIC90 (Candida albicans) [µM]
1 | CCOc1ccc2oc(/C=C/[S+](C)[O-])cc(=O)c2c1 (racemic) | 1500 | 11.4 (≈ 3.17 µg/mL) | 2000 | 4900 | 67 (≈ 18.6 µg/mL)
2 | C[S+]([O-])/C=C/c1cc(=O)c2cc(OC(=O)C(C)(C)C)ccc2o1 (racemic) | 1600 | 10 (≈ 3.34 µg/mL) | 1000 | 8000 | 71 (≈ 23.7 µg/mL)
3 | Cc1cccc2c(=O)cc(/C=C/[S+](C)[O-])oc12 (racemic) | 1700 | 10 (≈ 2.48 µg/mL) | 2200 | 6800 | > 100
4 | COc1ccc2c(=O)cc(/C=C/[S+](C)[O-])oc2c1 (racemic) | 2200 | 20 (≈ 5.29 µg/mL) | 1800 | 7800 | > 100
5 | CC(C)Oc1ccc2oc(/C=C/[S+](C)[O-])cc(=O)c2c1 (racemic) | 1500 | 11.1 (≈ 3.25 µg/mL) | 1400 | 8000 | 84 (≈ 24.6 µg/mL)
6 | C[S+]([O-])/C=C/c1cc(=O)c2cc(Br)ccc2o1 (racemic) | 1100 | 2.5 (≈ 0.783 µg/mL) | 1000 | 4500 | 47 (≈ 14.7 µg/mL)
7 | C[S+]([O-])/C=C/c1cc(=O)c2cc3c(cc2o1)OCO3 (racemic) | 2100 | 39 (≈ 10.9 µg/mL) | 2000 | 6000 | > 100
8 | CC(=O)Oc1ccc2oc(/C=C/[S+](C)[O-])cc(=O)c2c1 (racemic) | 4100 | 11 (≈ 3.22 µg/mL) | 2500 | > 10000 | > 100
9 | CCCCC(=O)Oc1ccc2oc(/C=C/[S+](C)[O-])cc(=O)c2c1 (racemic) | 2400 | 5.1 (≈ 1.71 µg/mL) | 1800 | 6700 | 47 (≈ 15.7 µg/mL)
10 | COc1cc([C@@H]2c3cc4c(cc3[C@@H](O[C@@H]3O[C@@H]5CO[C@@H](C)O[C@H]5[C@H](O)[C@H]3O)[C@H]3COC(=O)[C@H]23)OCO4)cc(OC)c1O [ETOPOSIDE] | 4800 | – | 47000 | 570 | –
11 | Cc1ccc2oc(/C=C/[S+](C)[O-])cc(=O)c2c1 (racemic) | 1700 | 10 (≈ 2.48 µg/mL) | 1800 | 7000 | > 100
12 | CC(C)C(=O)Oc1ccc2oc(/C=C/[S+](C)[O-])cc(=O)c2c1 (racemic) | 2400 | 9 (≈ 2.88 µg/mL) | 1900 | 9100 | > 100
13 | CC(C)CC(=O)Oc1ccc2oc(/C=C/[S+](C)[O-])cc(=O)c2c1 (racemic) | 2300 | 5.1 (≈ 1.71 µg/mL) | 1700 | 6100 | 72 (≈ 24.1 µg/mL)
14 | C[S+]([O-])/C=C/c1cc(=O)c2c(ccc3ccccc32)o1 (racemic) | 940 | 18 (≈ 5.12 µg/mL) | 880 | 4300 | > 100
15 | CCC(=O)Oc1ccc2oc(/C=C/[S+](C)[O-])cc(=O)c2c1 (racemic) | 2400 | 10 (≈ 3.06 µg/mL) | 2100 | 9000 | > 100
16 | C[S+]([O-])/C=C/c1cc(=O)c2cc(F)ccc2o1 (racemic) | 2100 | 5.3 (≈ 1.34 µg/mL) | 1700 | 7000 | > 100
17 | C[S+]([O-])/C=C/c1cc(=O)c2cc(Cl)ccc2o1 (racemic) | 1700 | 2.7 (≈ 0.726 µg/mL) | 1600 | 6500 | > 100
18 | C[S+]([O-])/C=C/c1cc(=O)c2ccccc2o1 (racemic) | 1900 | 9 (≈ 2.11 µg/mL) | 2000 | 8000 | > 100

Row | Compound | IC50 (A549) [nM] | MIC90 (Staphylococcus aureus) [µM] | IC50 [1] [nM] | IC50 (DLD-1) [nM] | MIC90 (Candida albicans) [µM]
19 | C[C@@H]1[C@H](O)[C@@H](C)/C=C/C=C/C=C/C=C/C=C/C=C/C=C/[C@H](O[C@@H]2O[C@H](C)[C@@H](O)[C@H](N)[C@@H]2O)C[C@@H]2O[C@](O)(C[C@@H](O)C[C@@H](O)[C@H](O)CC[C@@H](O)C[C@@H](O)CC(=O)O[C@H]1C)C[C@H](O)[C@H]2C(=O)O [AMPHOTERICIN B] | – | – | – | – | 1.4 (≈ 1.29 µg/mL)
20 | COc1cccc2c(=O)cc(/C=C/[S+](C)[O-])oc12 (racemic) | 2200 | 11 (≈ 2.91 µg/mL) | 1900 | 9000 | > 100
21 | GENTAMICIN | – | 0.09 | – | – | –
22 | C[S+]([O-])/C=C/c1cc(=O)c2ccc3ccccc3c2o1 (racemic) | 1400 | 4.8 (≈ 1.36 µg/mL) | 1900 | 7000 | > 100
23 | CCCOc1ccc2oc(/C=C/[S+](C)[O-])cc(=O)c2c1 (racemic) | 1100 | 11 (≈ 3.22 µg/mL) | 1900 | 6200 | 39 (≈ 11.4 µg/mL)
24 | Cc1cccc2oc(/C=C/[S+](C)[O-])cc(=O)c12 (racemic) | 1300 | 23 (≈ 5.71 µg/mL) | 1900 | 5500 | > 100
25 | C[S+]([O-])/C=C/c1cc(=O)c2cc(O)ccc2o1 (racemic) | 10500 | 24 (≈ 6.01 µg/mL) | 7500 | > 10000 | > 100
26 | Cc1c(/C=C/[S+](C)[O-])oc2ccccc2c1=O (racemic) | 1500 | 20 (≈ 4.97 µg/mL) | 2100 | 7200 | > 100
27 | CCCCOc1ccc2oc(/C=C/[S+](C)[O-])cc(=O)c2c1 (racemic) | 1400 | 5.4 (≈ 1.65 µg/mL) | 1100 | 4800 | 14.1 (≈ 4.32 µg/mL)
28 | C[S+]([O-])/C=C/c1oc2ccccc2c(=O)c1Cc1ccccc1 (racemic) | 1300 | 2.9 (≈ 0.941 µg/mL) | 1200 | 5100 | > 100
29 | CC(C)CCOc1ccc2oc(/C=C/[S+](C)[O-])cc(=O)c2c1 (racemic) | 1000 | 2.8 (≈ 0.897 µg/mL) | 850 | 4100 | 8.4 (≈ 2.69 µg/mL)
30 | CCCCCOc1ccc2oc(/C=C/[S+](C)[O-])cc(=O)c2c1 (racemic) | 1600 | 4.3 (≈ 1.38 µg/mL) | 1700 | 6600 | 7 (≈ 2.24 µg/mL)
31 | Cc1ccc2c(=O)cc(/C=C/[S+](C)[O-])oc2c1 (racemic) | 2000 | 10 (≈ 2.48 µg/mL) | 1900 | 7000 | > 100
32 | COc1ccc2oc(/C=C/[S+](C)[O-])cc(=O)c2c1 (racemic) | 1600 | 6.1 (≈ 1.61 µg/mL) | 1300 | 5700 | > 100
33 | CC(C)COc1ccc2oc(/C=C/[S+](C)[O-])cc(=O)c2c1 (racemic) | 1100 | 5.7 (≈ 1.75 µg/mL) | 1200 | 5000 | 13.4 (≈ 4.11 µg/mL)
34 | C[S+]([O-])/C=C/c1cc(=O)c2cc(C#N)ccc2o1 (racemic) | > 10000 | 5.6 (≈ 1.45 µg/mL) | > 10000 | > 10000 | > 100
35 | CCCC(=O)Oc1ccc2oc(/C=C/[S+](C)[O-])cc(=O)c2c1 (racemic) | 2200 | 7.2 (≈ 2.31 µg/mL) | 1500 | 8700 | > 100
36 | COc1cccc2oc(/C=C/[S+](C)[O-])cc(=O)c12 (racemic) | 3800 | 43 (≈ 11.4 µg/mL) | 3800 | > 10000 | > 100
